Results taken from patent publication US10681909B2, “Herbicidal triazoles” (FMC Corporation, priority 2014, dated 2020).

Assays:
foxtail, giant = test: Test A preemergence; assay type: in vivo, Setaria faberii; details: Setaria faberi, pre-emergence, 240 h, 0 to 100 scale (0 no effect, 100 complete control), read-out: Plant response rating, Foxtail, Giant; for pest or weed control at 125 g/ha: 125 g ai/ha; for pest or weed control at 500 g/ha: 500 g ai/ha, approx. 10 d
Summary of the method: (§1)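 Pre- and postemergence spray tests in a loam soil–sand mixture: seeded soil received a directed spray, while established seedlings 2–10 cm high at the one- to two-leaf stage were treated over the top. Compounds were carried in non-phytotoxic solvent with surfactant.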

pigweed [1] = test: Test A preemergence; assay type: in vivo, Amaranthus retroflexus; details: Amaranthus retroflexus, pre-emergence, 240 h, 0 to 100 scale (0 no effect, 100 complete control), read-out: Plant response rating, Pigweed; for pest or weed control at 125 g/ha: 125 g ai/ha; for pest or weed control at 500 g/ha: 500 g ai/ha, approx. 10 d
Summary of the method: as §1

johnsongrass = test: Test C postemergence; assay type: in vivo, Sorghum halepense
Excerpt: (§2) Seeds of plant species selected from blackgrass (Alopecurus myosuroides), ryegrass, Italian (Italian ryegrass, Lolium multiflorum), wheat (winter wheat, Triticum aestivum), galium (catchweed bedstraw, Galium aparine), corn (Zea mays), crabgrass, large (large crabgrass, Digitaria sanguinalis), foxtail, giant, (giant foxtail, Setaria faberii), johnsongrass (Sorghum halepense), lambsquarters (Chenopodium album), morningglory (Ipomoea coccinea), nutsedge, yellow (yellow nutsedge, Cyperus esculentus), pigweed (Amaranthus retroflexus), ragweed (common ragweed, Ambrosia elatior), soybean (Glycine max), barnyardgrass (Echinochloa crus-galli), oilseed rape (Brassica napus), waterhemp (common waterhemp, Amaranthus rudis), and velvetleaf (Abutilon theophrasti) were planted into a blend of loam soil and sand and treated preemergence with test chemicals formulated in a non-phytotoxic solvent mixture which included a surfactant. At the same time, plants selected from these crop and weed species and also chickweed (common chickweed, Stellaria media), oat, wild (wild oat, Avena fatua), and kochia (Kochia scoparia), were planted in pots containing Sunshine Redi-Earth® planting medium comprising spaghnum peat moss, vermiculite, starter nutrients and dolomitic limestone and treated with postemergence applications of test chemicals formulated in the same manner. Plants ranged in height from 2 to 18 cm (1- to 4-leaf stage) for postemergence treatments. […] A dash (-) response means no test result.

oat, wild = test: Test C postemergence; assay type: in vivo, Avena fatua
Excerpt: as §2

galium = test: Test C postemergence; assay type: in vivo, Galium aparine
Excerpt: as §2

lambsquarters = test: Test C postemergence; assay type: in vivo, Chenopodium album
Excerpt: as §2

soybean = test: Test C postemergence; assay type: in vivo, Glycine max
Excerpt: as §2

chickweed = test: Test C postemergence; assay type: in vivo, Stellaria media
Excerpt: as §2

blackgrass = test: Test C postemergence; assay type: in vivo, Alopecurus myosuroides
Excerpt: as §2

rice = test: Test B flooded paddy test; assay type: in vivo, Oryza sativa; details: Oryza sativa, 360 h, 250 g ai/ha, applied to paddy water at 2-leaf stage, visual rating after 13 to 15 d, scale 0 (no effect) to 100 (complete control), read-out: Plant response rating, Rice, Flood
Summary of the method: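 Pots were flooded to 3 cm above the soil at treatment, and compounds were applied directly into the paddy water. That depth was held throughout. After 13 to 15 d in a greenhouse, plants were rated visually against untreated controls.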

pigweed [2] = test: Test C postemergence; assay type: in vivo, Amaranthus retroflexus
Excerpt: as §2

wheat (winter wheat) = test: Test C postemergence; assay type: in vivo, Triticum aestivum
Excerpt: as §2

## Cn1nc(-c2ccc(F)cc2)nc1Oc1cccc(C(F)(F)F)c1 [Compound 5, 3-(4-fluorophenyl)-1-methyl-5-[3-(trifluoromethyl)phenoxy]-1H-1,2,4-triazole]
foxtail, giant
  pest or weed control at 125 g/ha: 60%
  pest or weed control at 500 g/ha: 90%
Pigweed [1]
  pest or weed control at 125 g/ha: 40%
  pest or weed control at 500 g/ha: 50%

## CCCc1nc(-c2ccc(F)cc2)nn1Cc1ccnc(C(F)(F)F)c1 [Compound 6, 4-[[3-(4-fluorophenyl)-5-propyl-1H-1,2,4-triazol-1-yl]methyl]-2-(trifluoromethyl)pyridine]
johnsongrass; 31 g ai/ha
  Plant response rating (scale of 0 to 100 where 0 is no effect and 100 is complete control): 10
johnsongrass; 62 g ai/ha
  Plant response rating (scale of 0 to 100 where 0 is no effect and 100 is complete control): 10
johnsongrass; 125 g ai/ha
  Plant response rating (scale of 0 to 100 where 0 is no effect and 100 is complete control): 15
johnsongrass; 250 g ai/ha
  Plant response rating (scale of 0 to 100 where 0 is no effect and 100 is complete control): 35
foxtail, giant
  pest or weed control at 125 g/ha: 100%
  pest or weed control at 500 g/ha: 100%
oat, wild; 31 g ai/ha
  Plant response rating (scale of 0 to 100 where 0 is no effect and 100 is complete control): 5
oat, wild; 62 g ai/ha
  Plant response rating (scale of 0 to 100 where 0 is no effect and 100 is complete control): 5
oat, wild; 125 g ai/ha
  Plant response rating (scale of 0 to 100 where 0 is no effect and 100 is complete control): 10
oat, wild; 250 g ai/ha
  Plant response rating (scale of 0 to 100 where 0 is no effect and 100 is complete control): 10
galium; 31 g ai/ha
  Plant response rating (scale of 0 to 100 where 0 is no effect and 100 is complete control): 80
galium; 62 g ai/ha
  Plant response rating (scale of 0 to 100 where 0 is no effect and 100 is complete control): 80
galium; 125 g ai/ha
  Plant response rating (scale of 0 to 100 where 0 is no effect and 100 is complete control): 90
galium; 250 g ai/ha
  Plant response rating (scale of 0 to 100 where 0 is no effect and 100 is complete control): 90
Pigweed [1]
  pest or weed control at 125 g/ha: 100%
  pest or weed control at 500 g/ha: 100%
lambsquarters; 31 g ai/ha
  Plant response rating (scale of 0 to 100 where 0 is no effect and 100 is complete control): 65
lambsquarters; 62 g ai/ha
  Plant response rating (scale of 0 to 100 where 0 is no effect and 100 is complete control): 70
lambsquarters; 125 g ai/ha
  Plant response rating (scale of 0 to 100 where 0 is no effect and 100 is complete control): 85
lambsquarters; 250 g ai/ha
  Plant response rating (scale of 0 to 100 where 0 is no effect and 100 is complete control): 85
soybean; 31 g ai/ha
  Plant response rating (scale of 0 to 100 where 0 is no effect and 100 is complete control): 35
soybean; 62 g ai/ha
  Plant response rating (scale of 0 to 100 where 0 is no effect and 100 is complete control): 40
soybean; 125 g ai/ha
  Plant response rating (scale of 0 to 100 where 0 is no effect and 100 is complete control): 60
chickweed; 31 g ai/ha
  Plant response rating (scale of 0 to 100 where 0 is no effect and 100 is complete control): 70
chickweed; 62 g ai/ha
  Plant response rating (scale of 0 to 100 where 0 is no effect and 100 is complete control): 80
chickweed; 125 g ai/ha
  Plant response rating (scale of 0 to 100 where 0 is no effect and 100 is complete control): 85
chickweed; 250 g ai/ha
  Plant response rating (scale of 0 to 100 where 0 is no effect and 100 is complete control): 95
blackgrass; 31 g ai/ha
  Plant response rating (scale of 0 to 100 where 0 is no effect and 100 is complete control): 5
blackgrass; 62 g ai/ha
  Plant response rating (scale of 0 to 100 where 0 is no effect and 100 is complete control): 5
blackgrass; 125 g ai/ha
  Plant response rating (scale of 0 to 100 where 0 is no effect and 100 is complete control): 5
blackgrass; 250 g ai/ha
  Plant response rating (scale of 0 to 100 where 0 is no effect and 100 is complete control): 10
rice
  plant injury at 250 g/ha: 50%
Pigweed [2]; 31 g ai/ha
  Plant response rating (scale of 0 to 100 where 0 is no effect and 100 is complete control): 80
Pigweed [2]; 62 g ai/ha
  Plant response rating (scale of 0 to 100 where 0 is no effect and 100 is complete control): 80
Pigweed [2]; 125 g ai/ha
  Plant response rating (scale of 0 to 100 where 0 is no effect and 100 is complete control): 85
Pigweed [2]; 250 g ai/ha
  Plant response rating (scale of 0 to 100 where 0 is no effect and 100 is complete control): 85
Wheat (winter wheat); 31 g ai/ha
  Plant response rating (scale of 0 to 100 where 0 is no effect and 100 is complete control): 5
Wheat (winter wheat); 62 g ai/ha
  Plant response rating (scale of 0 to 100 where 0 is no effect and 100 is complete control): 10
Wheat (winter wheat); 125 g ai/ha
  Plant response rating (scale of 0 to 100 where 0 is no effect and 100 is complete control): 15
Wheat (winter wheat); 250 g ai/ha
  Plant response rating (scale of 0 to 100 where 0 is no effect and 100 is complete control): 15
